According to US11584709B2, “Multitarget drug for treating diseases in mammals” (“PHARMENTERPRISES EURASIA” LIMITED LIABILITY COMPANY, priority 2017, dated 2023):

Tests used:
[1] = tested on: motility of the gastrointestinal tract; assay: Model of irritable bowel syndrome: motility of the gastrointestinal tract (activated carbon); assay type: in vivo, nonlinear male mice
Method: The effect on the motility of the gastrointestinal tract was studied on a model of irritable bowel syndrome in nonlinear male mice weighing 24-30 g. The animals were intragastrically injected with a solution of activated carbon (50 mg/ml, in a volume of 10 ml/kg) and the speed (in minutes) of the movement of activated coal through the intestines of animals. The compounds under study were intragastrically administered once 1 hour before the introduction of activated carbon. Drotaverine (6.7 mg/kg), Buscopan (3 mg/kg) and Trimedat (33 mg/kg) were used as reference drugs.

indomethacin colitis = assay: Model of colitis induced by indomethacin; assay type: in vivo, male Wistar rats; conditions: day 4
Method: The study was performed on male Wistar rats, which were subcutaneously injected with an indomethacin solution in a dose of 9 mg/kg for two days running to induce colitis. The injection solution was prepared as follows: first, indomethacin was dissolved in 100% ethanol, then it was diluted in 5% NaHCO3 solution. On the 4th day after euthanasia, the stomach and intestine were removed from the animals in the CO2 chamber, then the caecum was excised, 10 cm from the ileum and large intestine was cut off, and 5 cm—from the caecum, to assess gross lesions (J Ethnopharmacol. 2004 February; 90(2-3): 195-204).

[2] = tested on: imiquimod-induced psoriasis on the back; assay: Mouse model of imiquimod-induced psoriasis on the back; assay type: in vivo
Method: Psoriasis was simulated in female balb/c mice by applying Aldar cream (5% imiquimod) on a previously shaved skin back area of 3×4 cm daily 1 time per day for 15 days (J Immunol. 2009 May 1; 182(9):5836-45). Intact animals were applied with vaseline: 120 mg per the shaved back area.
The assessment of the development of pathology was performed on the 10th, 12th, 13th and 15th day before the next application of Aldar cream according to the index: the thickness of the skin fold on the back. The thickness of the skin fold on the back was measured with a Digimatic MK-25 micrometer (Mitutoyo, Japan).

[3] = tested on: imiquimod-induced ear psoriasis; assay: Mouse model of imiquimod-induced ear psoriasis; assay type: in vivo, female balb/c mice; conditions: 0.05%, M ± m, n = 10
Method: Psoriasis was simulated in female balb/c mice by applying Aldar cream (5% imiquimod) on the inner side of the right ear daily 1 time per day for 10 days (J Immunol. 2009 May 1; 182(9):5836-45). Vaseline was applied to intact animals: 20 mg on the right ear.
The assessment of the development of pathology was performed on 2nd, 4th, 6th, 8th and 10th day before the next application of Aldar cream by measuring the thickness of the left and right ears.

model of Crohn's disease = assay: Mouse model of Crohn's disease (TNBS); assay type: in vivo, male balb/c mice; conditions: for The portion of dead animals: TNBS, 7 days, 10 animals
Method: The study was performed on male balb/c mice. Animals, which starved for 24 hours, were injected with 150 μl/mouse of TNBS solution in 50% ethanol into the rectal hole of the mouse to the depth of 4 cm using a 3.5 F catheter. Next, the mice were turned upside down and held for 60 seconds. 150 μl of the 50% ethanol solution was injected into the healthy control (intact animals). The study lasted 7 days. The development of pathology was assessed by the death of animals.

[4] = tested on: diarrhea induced by castor oil; assay: Mouse model of diarrhea induced by castor oil; assay type: in vivo, Balb/c mice; conditions: 1 mg/kg; M ± m, n = 10; observation 4 hours
Method: Balb/c mice, which starved for 24 hours, were given castor oil intragastrically. Then the animals were encaged into individual cages with a bottom covered with white paper, and time before the onset of diarrhea was noted. The observation time is 4 hours (J Pharm Pharmacol. 2015 February; 67(2):244-54).

[5] = inducer alone (control group), 9 mg/kg subcutaneously two days running

## CCC(COC(=O)c1cc(OC)c(OC)c(OC)c1)(c1ccccc1)N(C)C.O=C(O)/C=C\C(=O)O (centres unmarked) [Trimedat, reference compound]
[1]; 33 mg/kg once intragastrically 1 hour before activated carbon
  The evacuation speed of activated carbon: 83.65 ± 2.42 min

## COc1ccc2c(c1)c(CC(=O)O)c(C)n2C(=O)c1ccc(Cl)cc1 [Indomethacin]
Indomethacin colitis; [5]
  Macroscopic assessment of the lesion, Caecum: 1.2 ± 0.4 points
  Macroscopic assessment of the lesion, Ileum: 5.6 ± 1.2 points
  Macroscopic assessment of the lesion, Large intestine: 1.2 ± 0.3 points
  Macroscopic assessment of the lesion, Overall assessment: 8.0 ± 1.3 points

## CCCC[N+]1(C)[C@@H]2C[C@@H](OC(=O)[C@H](CO)c3ccccc3)C[C@H]1[C@@H]1O[C@@H]12 (some centres unmarked) [Buscopan, reference compound]
[1]; 3 mg/kg once intragastrically 1 hour before activated carbon
  The evacuation speed of activated carbon: 73.2 ± 2.87 min

## CCC(=O)O[C@]1(C(=O)CCl)[C@@H](C)C[C@H]2[C@@H]3CCC4=CC(=O)C=C[C@]4(C)[C@@]3(F)[C@@H](O)C[C@@]21C [Dermovate, clobetasol, reference compound]
[2]; 0.05%, day 10, M ± m, n = 10
  The gain of the thickness of the back skin to the thickness before the start of the study: −26.8%
[2]; on the 12th day of the study, thinning the skin
  toxic effect: total death of animals
[3]; day 2
  The gain in the thickness of the right (affected) ear relatively day 0: 18.9%
[3]; day 4
  The gain in the thickness of the right (affected) ear relatively day 0: 22.6%
[3]; day 6
  The gain in the thickness of the right (affected) ear relatively day 0: 24.6%
[3]; day 8
  The gain in the thickness of the right (affected) ear relatively day 0: 21.3%
[3]; day 10
  The gain in the thickness of the right (affected) ear relatively day 0: 16.5%

## C[C@]12C=CC(=O)C=C1CC[C@@H]1[C@@H]2[C@@H](O)C[C@@]2(C)[C@H]1CC[C@]2(O)C(=O)CO [Prednisolone]
Model of Crohn's disease; 5 mg/kg, 1 time per day
  The portion of dead animals: 80%
Model of Crohn's disease; 10 mg/kg
  The portion of dead animals: 60%
Model of Crohn's disease; summary of Table 4
  reduction of the mortality: 20-40%
Indomethacin colitis; 2 mg/kg, M ± m, n = 10
  Macroscopic assessment of the lesion, Caecum: 0.3 ± 0.2& points
  Macroscopic assessment of the lesion, Ileum: 0.6 ± 0.6& points
  Macroscopic assessment of the lesion, Large intestine: 0.4 ± 0.2 points
  Macroscopic assessment of the lesion, Overall assessment: 1.3 ± 0.9& points

## CCOc1ccc(/C=C2\NCCc3cc(OCC)c(OCC)cc32)cc1OCC [Drotaverine, reference compound]
[1]; 6.7 mg/kg once intragastrically 1 hour before activated carbon
  The evacuation speed of activated carbon: 105.85 ± 2.39 min
[4]
  The time of onset of diarrhea: 43.60 ± 2.61& min

## CN(C)C(=O)C(CCN1CCC(O)(c2ccc(Cl)cc2)CC1)(c1ccccc1)c1ccccc1 [Loperamide, reference compound]
[4]
  The time of onset of diarrhea: 56.40 ± 5.14& min
